Assays:
[1] = test system: blood platelet (PAF-induced aggregation); assay: Inhibitory effect in vitro against PAF-induced blood platelet aggregation; format: cell-based; conditions: Oryctolagus cuniculus, 5 min; rabbit platelet rich plasma; l-C16:0 PAF final 10^-8 ~3×10^-8 M; 5 min observation
Method: Inhibitory effect in vitro against PAF-induced blood platelet aggregation
Blood samples were drawn from a rabbit and one part by volume of each sample was immediately mixed with 1/9 part of a 3.8% w/v aqueous solution of sodium citrate. The samples were centrifuged at 150×G at room temperature for 15 minutes to obtain a platelet rich plasma (PRP) fraction from the upper layer. The remains were further centrifuged at 1,000×G for 15 minutes to obtain a platelet poor plasma (PPP) fraction from the upper layer. The PRP and PPP fractions were mixed appropriately, to obtain a sample in which the final count of blood platelets was adjusted to be 6×10^5 per ul. According to the method reported by Born et al. [G. V. R. Born et al.: J. Physiol. 62, 67-68 (1962)], blood platelet aggregation was determined by an increase in light transmission measured using an aggregometer. 3 ul of a solution of the test compound in dimethyl sulfoxide were added to 272 ul of PRP, and, after 1 minute, 25 ul of a physiological saline solution containing l-c16:0 PAF (at a final concentration of 10^-8 ~3×10^-8 M) were added. […] At the end of this value and the value of PAF-induced aggregation which was observed when dimethyl sulfoxide only was used without the addition of any test compound. IC50 values were calculated from the dose-response curve.

PAF-receptor = target: T1, PAF-receptor (Oryctolagus cuniculus, UniProt G1TEI7); assay: Inhibitor effect on PAF-receptor binding; conditions: specific binding of ^3H-PAF; rabbit platelet PAF-receptor membrane fraction; read-out: Inhibition of receptor binding (IC50 M)
T1 construct: is regarded as a PAF-receptor membrane fraction; from tissue; host or cells: rabbit blood platelets (membrane fraction from sucrose density layers)
T1 sequence (G1TEI7 1-342): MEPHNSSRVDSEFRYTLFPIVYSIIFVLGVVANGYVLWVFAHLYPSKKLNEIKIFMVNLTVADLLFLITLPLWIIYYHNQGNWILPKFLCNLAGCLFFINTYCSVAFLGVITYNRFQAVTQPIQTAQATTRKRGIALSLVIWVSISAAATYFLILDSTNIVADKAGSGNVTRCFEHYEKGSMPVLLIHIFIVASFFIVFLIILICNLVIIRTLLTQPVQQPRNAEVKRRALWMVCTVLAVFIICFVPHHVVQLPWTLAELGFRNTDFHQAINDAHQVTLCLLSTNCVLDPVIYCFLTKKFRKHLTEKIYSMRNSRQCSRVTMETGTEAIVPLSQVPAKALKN
Source text: Inhibitor effect on PAF-receptor binding
Blood samples were drawn from the heart of a rabbit. 1 part by volume of each sample was mixed immediately with 1/9 part of 0.77M solution of disodium ethylenediaminetetraacetate. After a similar procedure to that described in Experiment 2, a precipitated blood platelet sample was obtained. This blood platelet sample was washed, and, after repeated freezing and thawing for cellular breakdown, it was laid on top of double layers consisting of […] and 1.5M sucrose solutions. By centrifugation at 63,500×G, for 2 hours at 4° C., the fraction obtained from the interface between the 0.25M and 1.5M sucrose solutions was collected and is regarded as a PAF-receptor membrane fraction. A receptor binding experiment was conducted according to a method very similar to that reported by Hwang et al. [San-Bao Hwang et al.: J. Biol. Chem. 260, 15639-15645 (1985)]. The specific binding of ^3 H-PAF was measured using a Wattman GF/C filter. A test compound was dissolved in dimethyl sulfoxide and diluted 100 fold with a buffer solution containing 0.5% bovine serum albumin. Nine parts by weight of the solution, for a receptor binding experiment, was mixed with one part of the test compound solution prepared above. The percent inhibition of the specific binding was plotted for a log concentration of the test compound, and the 50% inhibitory concentration (IC50) was calculated from the linear line connecting all the plotted points.

PAF-induced hypotension = assay: Inhibition of PAF-induced hypotension; format: in vivo, Wistar-Imamichi rats; conditions: Rattus norvegicus, iv, 1 min; anesthetized rats; l-C16:0 PAF 10 ng/kg i.v.; test compound i.v. cumulatively, 1 min before PAF; read-out: Inhibitory effect ID50
Method: Inhibition of PAF-induced hypotension
The test animals used were Wistar-Imamichi rats, each weighing from 350 to 450 g, anesthetized with Inactin (90 mg/kd, intraperitoneally).
Blood pressure was continuously measured throughout the experiment through a cannula inserted into the femoral artery. Each drug sample to be tested was intravenously injected through a cannula inserted into the femoral vein.
At first, l-C16:0 PAF was injected intravenously in amounts of 10 ng/kg at each injection at intervals of 5 minutes until the degree of the hypotensive response became constant. Then, each drug sample to be treated was intravenously injected. After one minute, the same dose of PAF was administered again. The drug sample was cumulatively administered. From its inhibition rate against the PAF-induced hypotensive effect, the 50% inhibitive dose (ID50) was determined, and is regarded as an index of PAF-antagonist activity. For administration, the PAF was dissolved in physiological saline solution containing 0.25% w/v of bovine serum albumin (BSA). The compounds under test were dissolved in dimethylformamide for use.
CV-3988 is disclosed in U.S. Pat. No. 4,408,052, and is structurally related to PAF itself.
In this Table, the compounds of the invention are identified by the number of the foregoing Example in which they were prepared.

Structure (SMILES) | IC50 [1] [nM] | IC50 (PAF-receptor) [nM] | ED50 (PAF-induced hypotension) [µg/kg]
COc1ccc(/C(=C/C(=O)N2CCN(C(=O)c3cc(OC)c(OC)c(OC)c3)CC2)c2cccc(Cl)c2Cl)cc1 [Example 81, 1-[(Z)-3-(4-Methoxyphenyl)-3-(2,3-dichlorophenyl)acryloyl]-4-(3,4,5-trimethoxybenzoyl)piperazine] | 31 | 32 | 
COc1ccc(/C(=C/C(=O)N2CCN(C(=O)c3cc(OC)c(OC)c(OC)c3)CC2)c2cc(F)cc(F)c2)cc1 [Example 87, 1-[(Z)-3-(4-Methoxyphenyl)-3-(3,5-difluorophenyl)acryloyl]-4-(3,4,5-trimethoxybenzoyl)piperazine] | 65 | 76 | 11
COc1cc(C(=O)N2CCN(C(=O)C=C(c3ccccc3)c3ccccc3)CC2)cc(OC)c1OC [Example 1, 1-(3,3-Diphenylacryloyl)-4-(3,4,5-trimethoxybenzoyl)piperazine] | 320 | 47 | 57
COc1ccc(/C(=C/C(=O)N2CCN(C(=O)c3cc(OC)c(OC)c(OC)c3)CC2)c2cccc(Cl)c2)cc1 [Example 45, 1-[(Z)-3-(3-Chlorophenyl)-3-(4-methoxyphenyl)acryloyl]-4-(3,4,5-trimethoxybenzoyl)piperazine] | 39 | 16 | 6.6
COc1ccc(/C(=C/C(=O)N2CCN(C(=O)c3cc(OC)c(OC)c(OC)c3)CC2)c2cccc(C(F)(F)F)c2)cc1 [Example 75, 1-[(Z)-3-(4-Methoxyphenyl)-3-(3-trifluoromethylphenyl)acryloyl]-4-(3,4,5-trimethoxybenzoyl)piperazine] | 99 | 23 | 5.1
CCCCCCCCCCCCCCCCCCNC(=O)OCC(COP(=O)([O-])OCC[n+]1ccsc1)OC (racemic) [CV-3988, reference compound] |  | 1600 | 420
COc1ccc(/C(=C/C(=O)N2CCN(C(=O)c3cc(OC)c(OC)c(OC)c3)CC2)c2cc(C(F)(F)F)cc(C(F)(F)F)c2)cc1 [Example 84, 1-[(Z)-3-(4-Methoxyphenyl)-3-(3,5-di-trifluoromethylphenyl)acryloyl]-4-(3,4,5-trimethoxybenzoyl)piperazine] |  | 40 | 8.6
COc1ccc(/C(=C/C(=O)N2CCN(C(=O)c3cc(OC)c(OC)c(OC)c3)CC2)c2ccccc2Cl)cc1 [Example 42, 1-[(Z)-3-(2-chlorophenyl)-3-(4-methoxyphenyl)acryloyl]-4-(3,4,5-trimethoxybenzoyl)piperazine] |  | 20 | 5
COc1cccc(/C(=C\C(=O)N2CCN(C(=O)c3cc(OC)c(OC)c(OC)c3)CC2)c2cccc(Cl)c2)c1 [Example 44, 1-[(E)-3-(3-Chlorophenyl)-3-(3-methoxyphenyl)acryloyl]-4-(3,4,5-trimethoxybenzoyl)piperazine] |  | 15 | 7.5
CCOc1ccc(/C(=C/C(=O)N2CCN(C(=O)c3cc(OC)c(OC)c(OC)c3)CC2)c2cc(Cl)cc(Cl)c2)cc1 [Example 85, 1-[(Z)-3-(4-Ethoxyphenyl)-3-(3,5-dichlorophenyl)acryloyl]-4-(3,4,5-trimethoxybenzoyl)piperazine] |  | 20 | 6.1
COc1cc(C(=O)N2CCN(C(=O)C=C(c3cccc(C)c3)c3cccc(C)c3)CC2)cc(OC)c1OC [Example 56, 1-[3,3-Bis(3-Methylphenyl)acryloyl]-4-(3,4,5-trimethoxybenzoyl)piperazine] |  | 35 | 11
COc1cc(C(=O)N2CCN(C(=O)/C=C(/c3ccccc3)c3cccs3)CC2)cc(OC)c1OC [Example 5, 1-[(Z)-3-Phenyl-3-(2-thienyl)acryloyl]-4-(3,4,5-trimethoxybenzoyl)piperazin] | 260 | 47 | 54
COc1ccc(/C(=C/C(=O)N2CCN(C(=O)c3cc(OC)c(OC)c(OC)c3)CC2)c2ccc(Cl)c(Cl)c2)cc1 [Example 31, 1-[(Z)-3-(3,4-Dichlorophenyl)-3-(4-methoxyphenyl)acryloyl]-4-(3,4,5-trimethoxybenzoyl)piperazine] | 44 | 14 | 6.7
COc1cccc(/C(=C/C(=O)N2CCN(C(=O)c3cc(OC)c(OC)c(OC)c3)CC2)c2ccccc2Cl)c1 [Example 72, 1-[(Z)-3-(3-Methoxyphenyl)-3-(2-chlorophenyl)acryloyl]-4-(3,4,5-trimethoxybenzoyl)piperazine] |  | 26 | 9.7
COc1ccc(/C(=C/C(=O)N2CCN(C(=O)c3cc(OC)c(OC)c(OC)c3)CC2)c2cc(Cl)cc(Cl)c2)cc1 [Example 77, 1-[(Z)-3-(4-Methoxyphenyl)-3-(3,5-dichlorophenyl)acryloyl]-4-(3,4,5-trimethoxybenzoyl)piperazine] | 26 | 14 | 3.7
CCCOc1ccc(/C(=C/C(=O)N2CCN(C(=O)c3cc(OC)c(OC)c(OC)c3)CC2)c2ccc(Cl)c(Cl)c2)cc1 [Example 49, 1-[(Z)-3-(3,4-Dichlorophenyl)-3-(4-propoxyphenyl)acryloyl]-4-(3,4,5-trimethoxybenzoyl)piperazine] | 66 | 21 | 8
COc1cccc(/C(=C/C(=O)N2CCN(C(=O)c3cc(OC)c(OC)c(OC)c3)CC2)c2cccc(Cl)c2)c1 [Example 43, 1-[(Z)-3-(3-Chlorophenyl)-3-(3-methoxyphenyl)acryloyl]-4-(3,4,5-trimethoxybenzoyl)piperazine] |  | 13 | 4.4
CCCOc1cccc(/C(=C/C(=O)N2CCN(C(=O)c3cc(OC)c(OC)c(OC)c3)CC2)c2ccccc2)c1 [Example 76, 1-[(E)-3-(3-Propoxyphenyl)-3-phenylacryloyl]-4-(3,4,5-trimethoxybenzoyl)piperazine] | 83 |  | 9.2
COc1ccc(/C(=C\C(=O)N2CCN(C(=O)c3cc(OC)c(OC)c(OC)c3)CC2)c2ccc(OC)c(OC)c2)cc1 [Example 29, 1-[(E)-3-(3,4-Dimethoxyphenyl)-3-(4-methoxyphenyl)acryloyl]-4-(3,4,5-trimethoxybenzoyl)piperazine] | 180 |  | 48
CCc1ccc(/C(=C/C(=O)N2CCN(C(=O)c3cc(OC)c(OC)c(OC)c3)CC2)c2ccc(Cl)c(Cl)c2)cc1 [Example 52, 1-[(Z)-3-(3,4-Dichlorphenyl)-3-(4-ethylphenyl)acryloyl]-4-(3,4,5-trimethoxybenzoyl)piperazine] | 30 |  | 8.4
CCc1ccc(/C(=C/C(=O)N2CCN(C(=O)c3cc(OC)c(OC)c(OC)c3)CC2)c2cccc(Cl)c2)cc1 [Example 83, 1-[(Z)-3-(4-Ethylphenyl)-3-(3-chlorophenyl)acryloyl]-4-(3,4,5-trimethoxybenzoyl)piperazine] |  | 14 | 11
CCCOc1cccc(/C(=C/C(=O)N2CCN(C(=O)c3cc(OC)c(OC)c(OC)c3)CC2)c2cccc(Cl)c2)c1 [Example 70, 1-[(Z)-3-(3-Propoxyphenyl)-3-(3-chlorophenyl)acryloyl]-4-(3,4,5-trimethoxybenzoyl)piperazine] | 30 |  | 3.3

— patent publication US5192766A, “N-acryloylpiperazine derivatives, their preparation and their use as PAF antagonists” (Sankyo Company, Limited, priority 1989, dated 1993)
